SMILES | melting point [°C]
COC(=O)c1cscc1S(=O)(=O)Cl | 71
CCN(CC)CCn1nc2c3c(cccc31)Sc1ccccc1-2 | 49 to 50.5
OC1Cc2cc(F)cc(F)c2C1 (stereo unspecified) | 52 to 56
OC1CSC(Oc2cnccc2-c2ccc(C(F)(F)F)cc2)C(O)C1O (stereo unspecified) | 204
Clc1ccc(OCOCOc2ccc(Cl)cc2)cc1 | 53.5 to 54
O=C(c1ccccc1Cl)N1Cc2c(-c3noc(C4CC4)n3)ncn2-c2ccccc21 | 254 to 256
COc1c(CN2C(=O)c3ccccc3C2=O)c2c(c3c1OC(C)(C)C3)C(c1ccccc1)=NC(C)(C)C2 | 193 to 195
Cn1ncnc1COc1nn2c(-c3ccc(F)cc3F)nncc2c1-c1ccccc1F | 164 to 166
N#CC1C(=O)c2ccccc2Nc2ccccc21 (stereo unspecified) | 195 to 197
Cc1cc(-c2ccc(C#N)cc2)c(C#N)n1Cc1cnc(Cl)c(CO)c1 | 184
Cn1cc(-c2ccc(C34CCCN(CC3)C4)cn2)cn1 (racemic) | 138 to 140
CCOC(=O)c1c(N2CCOCC2)c2cc(Cl)ccc2n(C)c1=O | 167 to 169
c1ccc2c(c1)CCOC2 | 89 to 90
O=Cc1c(Br)ncn1Cc1cc2c(cc1Cl)OCO2 | 136
O=C(CCCl)N(c1ccccc1)c1ccccc1 | 93 to 94
CN1C(=O)N(C)C(=O)C2(CC=C3C(CCC4=Cc5c(cnn5-c5ccc(F)cc5)CC43C)O2)C1=O (stereo unspecified) | 188 to 189
COc1cc2c(cc1Nc1ncc(Cl)c(Nc3ccc(N4CCOCC4)cc3OC)n1)C(C)(C)CCC(=O)N2 | 246 to 248
CSc1nc(-c2ccc(F)cc2)c(-c2ccnc(Nc3ccccc3)c2)[nH]1 | 228
CN(CCCNC(=O)c1c2ccccc2nc2ccccc12)CCCNC(=O)c1c2ccccc2nc2c1[nH]c1ccccc12 | 108 to 110
CN1CCN(C2=Nc3ccccc3N3CCc4cccc2c43)CC1 | 149 to 151

SMILES | melting point [°C]
Brc1ccc(-c2nn[nH]n2)cc1 | 271 to 273
c1ccc2c(C3CCCc4cncn43)noc2c1 (stereo unspecified) | 250 to 252
CC1(C)SCc2ccccc2C1=NO | 83 to 84
CCCCOc1nc(O)ns1 | 62
O=c1oc2c(c(O)c1C(c1cc(NS(=O)(=O)c3cccc4cccnc34)cc(NS(=O)(=O)c3cccc4cccnc34)c1)C1CC1)CCCCCC2 (stereo unspecified) | 139 to 145
CCn1ncc2cc3c(nc21)CCc1ccccc1C3(O)CCCN(C)C (stereo unspecified) | 100 to 102
CCc1cc2c(Cl)cc(F)c(-n3c(=O)cc(C(F)(F)F)n(N)c3=O)c2o1 | 145 to 147
CCOC(CC)c1ccc(Cl)c2nc3n(c12)CCCN3c1ccc(Cl)cc1Cl (stereo unspecified) | 108 to 110
CCC1(CC)c2ccccc2-c2ccccc21 | 29 to 30
O=C1Nc2c(ccc3c2CCCC3)SC1CCCN1CCN(c2ccc(F)cc2)CC1 (stereo unspecified) | 145 to 147
C#CC1(O)CCC2C3CCC4=CC(=O)C=CC4(C)C3CCC21C (stereo unspecified) | 218 to 219
NC(=O)c1cncn1C(c1ccccc1)c1ccccc1 | 153
COCC1CN(Cc2cc(OC)c(OC)c(OC)c2)CCN1C(=O)c1cn2ccccc2n1 (stereo unspecified) | 129 to 130
C[C@H](O)c1nnc(-c2ccc3occ(-c4cc(F)ccc4Cl)c3c2)o1 | 204 to 205
OC[C@H]1COc2ccc3scc(Cl)c3c2O1 | 92 to 93
CC(C)(O)c1cnn2c(-c3cccc(-c4ccncc4)c3F)cnc2n1 | 221 to 223
O=[N+]([O-])c1ccc2c(c1)Sc1cc(OCCF)ccc1N2 | 189 to 191
Fc1ccc([C@@]2(Cn3nc[nH]c3=S)O[C@@H]2c2ccccc2F)c(F)c1 (relative stereo) | 144 to 148
CC(C)CC1N=C(c2ccccc2)c2cc(Cl)ccc2N=C1NN (stereo unspecified) | 165 to 168
CN(Cc1ccccc1)C(=O)c1cc2ccccc2c(-c2ccccc2Cl)n1 | 128

SMILES | melting point [°C]
Cc1nccn1C(c1ccccc1)(c1ccccc1)c1ccccc1Cl | 177
O=[N+]([O-])c1cc(Br)ccc1NCC(F)(F)F | 118 to 120
C=CCN1CCCC1CNC(C)=O (stereo unspecified) | 42
CSCCO[C@@H]1c2ccn3c(C)c(C)nc3c2N[C@H](c2ccccc2)[C@H]1O | 118 to 119
O=C(O)CN1C(=O)C(=Cc2csc(Nc3ccccc3)n2)SC1=S | 242 to 246
Cc1nc2ncnn2c(C2CCCCC2)c1-c1c(F)cc(OCCCN(C)C)cc1F | 95 to 97
CC(=O)NCCCCCC(=O)N1CC1C#N (stereo unspecified) | 74 to 77
CC1(C)CCSc2cccc(CO)c21 | 53
NCCCC=CCCC(=O)O | 139 to 144
CN(C(=O)C1c2ccccc2COc2ccc(Br)cc21)c1ccccc1 (stereo unspecified) | 148
CN1C(=O)[C@@H](NC(=O)C=Cc2ccccc2)N=C(c2ccccc2)c2ccccc21 | 126 to 140
O=Cc1cn(-c2ccccn2)nc1-c1ccc([N+](=O)[O-])o1 | 191 to 192
O=C(Cl)c1ccc(OCc2ccccc2)c(OCc2ccccc2)c1 | 92.5 to 94.5
Cc1ccc(-c2cncc(OC3SCC(O)C(O)C3O)c2)c(Cl)c1 (stereo unspecified) | 207
O=c1c2cnccc2[nH]c2ccnn12 | > 300
Nc1ncc(-c2ccccc2)nc1-c1ccc(O)cc1 | 181 to 183
COCc1cc(O)n[nH]1 | 123 to 125
CCOC(=O)c1cn(CCN(CC)CC)c2oc(CN3CCOCC3)cc2c1=O | 131 to 134

Other lines, results leading:

melting point [°C] | SMILES
134 to 136 | Cc1cc(CO)ccc1NC(=O)CN(C(=O)OC(C)(C)C)c1ccc(F)c(F)c1
206 to 208 | CC(=O)SCC(Cc1ccc(C)cc1)C(=O)Nc1cccc(C(=O)O)c1C (stereo unspecified)
79 | CCCCCCCNC(=O)N(CCC)c1cccc(-c2ccc(CCC(=O)O)cc2)c1
145 to 146 | Cc1nc(-c2cccc(CN(C(=O)Nc3ccc(Br)cc3)c3ccccc3)c2)no1
168 to 169 | CCc1nc2cnc3ccc(OCc4ccccc4)cc3c2n1C
72 to 73 | CS(=O)(=O)O[C@H](COCc1ccccc1)[C@@H](COCc1ccccc1)OS(C)(=O)=O
72 to 76 | COc1ccc(S(=O)(=O)CC(O)(CS(=O)(=O)c2ccc(-c3ccccc3)cc2)C(=O)NO)cc1 (stereo unspecified)
115 to 116 | COC(=O)c1ccc(=O)n(CCCNC(=O)c2ccccn2)c1
124 to 126 | CCCn1c(=O)c2[nH]c(CC(C)c3ccc(OCc4ccccc4)cc3)nc2n(CCC)c1=O (stereo unspecified)
65 to 67 | COc1cccc(CCCNC(=O)C2CC2)c1
88 to 90 | O=C(O)c1cc(=O)c2c(OCC(O)COc3ccccc3)cccc2o1 (stereo unspecified)
164 to 165 | Nc1ccc(CCC(=O)Nc2ccc(Cl)cc2Cl)cc1[N+](=O)[O-]
90 to 100 | CCCCCCCCCCNC(=O)C=C(c1ccccc1)c1ccc(N)cc1
78 to 80 | COc1cc(Sc2ccccc2CO)ccc1Cl
103 to 105 | CCCCC(CC)COc1ccc2c(Br)c3cc(OCC(CC)CCCC)ccc3c(Br)c2c1 (stereo unspecified)
145 to 147 | CC(C)(C)C(=O)CC(=O)Nc1cc(OC(=O)c2cc(C(C)(C)C)c(O)c(C(C)(C)C)c2)ccc1Cl
133 to 135 | O=C(Nc1nnc(COc2ccccc2Cl)s1)c1ccc2c(c1)CCN(C(=O)CO)C2
235 to 240 | CNC(=O)C(Cc1ccc(OC)cc1)NC(=O)CC(SC(C)=O)C(CC(C)C)C(N)=O (stereo unspecified)
165 to 166 | CCC(OC(C)=O)c1ccc(Cl)c2nc3n(c12)CCCN3c1ccc(N(C)C)nc1C (stereo unspecified)
83 to 84 | COc1ccc(CCNC(=O)N(C)O)c(OC)c1
288 to 290 | CCOC(=O)c1ccc(-c2cc3c(N[C@H](C)c4ccccc4)ncnc3[nH]2)cc1
138 to 139 | CC(C)(C)c1cc(CCc2ccccc2NC(=O)NCCCN2CCOCC2)cc(C(C)(C)C)c1O

melting point [°C] | SMILES
90 to 93 | CCOC(=O)c1ccc(NCc2ccccc2)cc1
121 to 122 | COC(=O)c1ncoc1-c1ccc([N+](=O)[O-])cc1Cl
114 to 115 | CC(=O)C[C@@H]1c2cc(C#N)ccc2OC(C)(C)[C@H]1O (relative stereo)
61 to 62 | CCCCCNC(=O)N(C)c1cccc(-c2ccc(CCC(=O)O)cc2OCCOCC)c1
196 to 198 | COc1cccc(-n2c3c(c(=O)c4cccnc42)CC(CBr)O3)c1 (stereo unspecified)
139 to 142 | O=c1oc(-c2ccc(OCc3ccccc3)cc2)cc(O)c1SCCc1ccccc1
138 to 145 | COc1ccc(CNc2ccncc2)c2c1OCC2C (stereo unspecified)
97 | CC(C)(C)NS(=O)(=O)c1cc(C(=O)Cl)ccc1Cl
70 | COC(=O)CCNC(=O)C1CCCN1C(=O)OC(C)(C)C (stereo unspecified)
105 to 106 | COc1cc(COc2nn(Cc3ccccc3)cc2C(C)O)ccc1OCc1nc(-c2ccco2)oc1C (stereo unspecified)
118 to 120 | CCOC(=O)c1c(C)nc2sc3c(c2c1-c1ccccc1)CCCC3
272 to 274 | CCNc1cc(NS(=O)(=O)c2ccc(N)cc2)nc(N)n1
191 to 192 | O=C(CCl)Nc1ccc2c(c1NC(=O)C1CC1)C(=O)c1ccccc1C2=O
155 to 156 | O=C(/C=C/C=C(c1ccc(F)cc1)c1ccc(F)cc1)NCCCCc1cccnc1
165 to 167 | O=C(O)Cn1c(Cc2ccccc2)ccc(NS(=O)(=O)CCc2ccccc2)c1=O
128 to 129 | CCOC(=O)C=Cc1ccc(OCc2coc(-c3ccccc3)n2)c(OC)c1
231 to 233 | NC(=O)NN=Cc1ccc(Oc2cc(Cl)ccn2)cc1
99 to 102 | COc1c2c(c(OC)c(OC)c1OC)CC(CCCCOc1ccc(C(=O)N(C)C)cc1)C2
249 to 250 | O=C(NNS(=O)(=O)c1ccccc1)c1cnc2ccccc2c1
165 to 167 | CC(C)C[C@H](NC(=O)c1ccc2c(c1)Nc1ccccc1S2)C(=O)N[C@H]1CCOC1OC(=O)N1CCOCC1 (stereo partly specified)
121 to 125 | CCCc1c(OCCCCCC(=O)c2cc(C)c(O)c(O)c2C)ccc(C(=O)O)c1O

— a melting point compilation (Tetko et al.; mined from patent text by program, amines drawn as free bases though some values may be those of a salt)
